Test results as given in ChEMBL document CHEMBL4130491, “Baicalin and its metabolites suppresses gluconeogenesis through activation of AMPK or AKT in insulin resistant HepG-2 cells” (Eur J Med Chem, 2017).
Activity calls are given as the source filed them. No cut-off for these calls is given here.

Assays:
HepG2 [1] = experiment: Cytotoxicity in human HepG2 cells assessed as reduction in cell viability up to 12.5 uM incubated for 24 hrs by MTT assay; format: cell-based; conditions: hepg2, 24 h
HepG2 [2] = experiment: Cytotoxicity in palmitate-induced insulin-resistant human HepG2 cells assessed as reduction in cell viability at 12.5 uM incubated for 24 hrs by MTT assay; format: cell-based; conditions: hepg2, 24 h
HepG2 [3] = experiment: Stimulation of glucose consumption in palmitate-induced insulin-resistant human HepG2 cells at 12.5 uM incubated for 24 hrs by glucose oxidase based assay; format: functional, cell-based
[4] = target: RAC-alpha serine/threonine-protein kinase (Homo sapiens) (UniProt P31749); experiment: Activation of AKT in palmitate-induced insulin-resistant human HepG2 cells assessed as reduction in GLUT2 mRNA expression at 12.5 uM incubated for 24 hrs after 1 hr pre-incubation of cells with 0.5 uM AKT inhibitor […] by real-time PCR method; format: cell-based
[5] = target: T1, AMP-activated protein kinase, AMPK (Homo sapiens) (UniProt P54646+O43741+P54619+Q9UGJ0+Q9Y478+Q13131+Q9UGI9); experiment: Activation of AMPK in palmitate-induced insulin-resistant human HepG2 cells assessed as increase in AMPK phosphorylation at 12.5 uM incubated for 24 hrs by Western blot method; format: cell-based
[6] = target: RAC-alpha serine/threonine-protein kinase (Homo sapiens) (UniProt P31749); experiment: Activation of AKT in palmitate-induced insulin-resistant human HepG2 cells assessed as increase in AKT phosphorylation at 12.5 uM incubated for 24 hrs by Western blot method; format: cell-based
[7] = target: T1, AMP-activated protein kinase, AMPK (Homo sapiens); experiment: Activation of AMPK in palmitate-induced insulin-resistant human HepG2 cells assessed as reduction in PEPCK mRNA expression at 12.5 uM incubated for 24 hrs by real-time PCR method; format: cell-based
[8] = target: T1, AMP-activated protein kinase, AMPK (Homo sapiens); experiment: Activation of AMPK in palmitate-induced insulin-resistant human HepG2 cells assessed as reduction in G6Pase mRNA expression at 12.5 uM incubated for 24 hrs by real-time PCR method; format: cell-based
[9] = target: T1, AMP-activated protein kinase, AMPK (Homo sapiens); experiment: Activation of AMPK in palmitate-induced insulin-resistant human HepG2 cells assessed as reduction in GLUT2 mRNA expression at 12.5 uM incubated for 24 hrs by real-time PCR method; format: cell-based
[10] = target: RAC-alpha serine/threonine-protein kinase (Homo sapiens) (UniProt P31749); experiment: Activation of AKT in palmitate-induced insulin-resistant human HepG2 cells assessed as reduction in PEPCK mRNA expression at 12.5 uM incubated for 24 hrs after 1 hr pre-incubation of cells with 10 uM AMPK inhibitor compound C by real-time PCR method; format: cell-based
[11] = target: RAC-alpha serine/threonine-protein kinase (Homo sapiens) (UniProt P31749); experiment: Activation of AKT in palmitate-induced insulin-resistant human HepG2 cells assessed as reduction in G6Pase mRNA expression at 12.5 uM incubated for 24 hrs after 1 hr pre-incubation of cells with 10 uM AMPK inhibitor compound C by real-time PCR method; format: cell-based
[12] = target: RAC-alpha serine/threonine-protein kinase (Homo sapiens) (UniProt P31749); experiment: Activation of AKT in palmitate-induced insulin-resistant human HepG2 cells assessed as reduction in GLUT2 mRNA expression at 12.5 uM incubated for 24 hrs after 1 hr pre-incubation of cells with 10 uM AMPK inhibitor compound C by real-time PCR method; format: cell-based
[13] = target: RAC-alpha serine/threonine-protein kinase (Homo sapiens) (UniProt P31749); experiment: Activation of AKT in palmitate-induced insulin-resistant human HepG2 cells assessed as reduction in PEPCK mRNA expression at 12.5 uM incubated for 24 hrs after 1 hr pre-incubation of cells with 0.5 uM AKT inhibitor […] by real-time PCR method; format: cell-based
[14] = target: RAC-alpha serine/threonine-protein kinase (Homo sapiens) (UniProt P31749); experiment: Activation of AKT in palmitate-induced insulin-resistant human HepG2 cells assessed as reduction in G6Pase mRNA expression at 12.5 uM incubated for 24 hrs after 1 hr pre-incubation of cells with 0.5 uM AKT inhibitor […] by real-time PCR method; format: cell-based
[15] = target: T1, AMP-activated protein kinase, AMPK (Homo sapiens); experiment: Activation of AMPK in palmitate-induced insulin-resistant human HepG2 cells assessed as reduction in PEPCK mRNA expression at 12.5 uM incubated for 24 hrs after 1 hr pre-incubation of cells with 10 uM AMPK inhibitor compound C by real-time PCR method; format: cell-based
[16] = target: T1, AMP-activated protein kinase, AMPK (Homo sapiens); experiment: Activation of AMPK in palmitate-induced insulin-resistant human HepG2 cells assessed as reduction in G6Pase mRNA expression at 12.5 uM incubated for 24 hrs after 1 hr pre-incubation of cells with 10 uM AMPK inhibitor compound C by real-time PCR method; format: cell-based
[17] = target: T1, AMP-activated protein kinase, AMPK (Homo sapiens); experiment: Activation of AMPK in palmitate-induced insulin-resistant human HepG2 cells assessed as reduction in GLUT2 mRNA expression at 12.5 uM incubated for 24 hrs after 1 hr pre-incubation of cells with 10 uM AMPK inhibitor compound C by real-time PCR method; format: cell-based
HepG2 [18] = experiment: Cytotoxicity in human HepG2 cells assessed as reduction in cell viability at 3.125 to 50 uM incubated for 24 hrs by MTT assay; format: cell-based; conditions: hepg2, 24 h
[19] = Cytotoxicity in human HepG2 cells assessed as cell viability at 25 uM incubated for 24 hrs by MTT assay; format: cell-based; conditions: read-out: Activity
[20] = Cytotoxicity in human HepG2 cells assessed as cell viability at 50 uM incubated for 24 hrs by MTT assay; format: cell-based; conditions: read-out: Activity
HepG2 [21] = experiment: Stimulation of glucose consumption in palmitate-induced insulin-resistant human HepG2 cells at 12.5 uM incubated for 24 hrs by glucose oxidase based assay relative to palmitate; format: functional

Chain of RAC-alpha serine/threonine-protein kinase (Homo sapiens) (P31749 whole entry): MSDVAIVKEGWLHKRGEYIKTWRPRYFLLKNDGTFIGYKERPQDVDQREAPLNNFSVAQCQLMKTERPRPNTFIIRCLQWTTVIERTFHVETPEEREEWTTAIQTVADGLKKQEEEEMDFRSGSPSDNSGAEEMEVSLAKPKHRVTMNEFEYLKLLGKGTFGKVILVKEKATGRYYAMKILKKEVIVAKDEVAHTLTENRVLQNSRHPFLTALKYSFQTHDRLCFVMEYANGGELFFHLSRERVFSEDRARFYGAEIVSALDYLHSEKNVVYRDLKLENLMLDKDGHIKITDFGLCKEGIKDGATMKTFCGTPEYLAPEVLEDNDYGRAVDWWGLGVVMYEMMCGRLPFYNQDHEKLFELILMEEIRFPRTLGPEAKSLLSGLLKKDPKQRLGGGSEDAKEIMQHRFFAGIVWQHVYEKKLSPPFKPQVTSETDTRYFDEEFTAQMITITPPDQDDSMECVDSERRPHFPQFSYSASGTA

Activity [4]	Activity [5]	Activity [6]	Activity [7]	Activity [8]	Activity [9]	Activity [15]	Activity [17]	SMILES	Activity (HepG2 [1])	Activity (HepG2 [2])	Activity (HepG2 [3])	other results
Active	–	–	–	–	–	–	–	COc1c(O[C@@H]2O[C@H](C(=O)O)[C@@H](O)[C@H](O)[C@H]2O)cc2oc(-c3ccccc3)cc(=O)c2c1O	Non-Toxic	Non-Toxic	inactive	–
Active	Active	Active	Active	Active	Active	–	–	O=C(O)[C@H]1O[C@@H](Oc2cc3oc(-c4ccccc4)cc(=O)c3c(O)c2O[C@@H]2O[C@H](CO)[C@@H](O)[C@H](O)[C@H]2O)[C@H](O)[C@@H](O)[C@@H]1O	Non-Toxic	Non-Toxic	Active	Activity [10]: Active; Activity [11]: Active; Activity [12]: Active; Activity [13]: inactive; Activity [14]: inactive
Active	Active	Active	Active	Active	Active	inactive	inactive	O=c1cc(-c2ccccc2)oc2cc(O)c(O)c(O)c12 [BAICALEIN]	Non-Toxic	Non-Toxic	Active	Activity [16]: inactive
–	Active	–	Active	Active	Active	inactive	inactive	O=C(O)[C@H]1O[C@@H](Oc2cc3oc(-c4ccccc4)cc(=O)c3c(O)c2O)[C@H](O)[C@@H](O)[C@@H]1O [BAICALIN]	–	Non-Toxic	Active	Activity (HepG2 [18]): Non-Toxic; viability at 24 h, 25 µM [19]: 85%; viability at 24 h, 50 µM [20]: 85%
–	Active	–	Active	Active	Active	–	–	CN(CCOc1ccc(CC2SC(=O)NC2=O)cc1)c1ccccn1 (configuration not stated) [ROSIGLITAZONE]	–	–	Active	Activity (HepG2 [21]): 7%
